# From patent US8871741B2, “Inhibition of TNF-α induced activation of NFKB by pentosan polysulfate” (Icahn School of Medicine at Mount Sinai, priority 2010, dated 2014)
# How the values were obtained:
# [1] = test system: MCP-1, RANTES, CXCL-1 mRNA; test: Real-time PCR of chemokine mRNA in renal cortex; type: in vivo, mouse; settings: PPS treated 22 month-old diabetic mice; P<0.01 vs. DN
# Description: Total RNA was isolated from renal cortex using a PureYield RNA Midiprep kit (Promega, Madison, Wis.). The preparation was free of DNA contamination and 500 ng of total RNA from each sample was reverse-transcribed as previously described (Zheng F, Striker G E, Esposito C, Lupia E, Striker L J. Kidney Int 1998, 54:1999-2007; Zheng F, et al., Am Pathol 2003, 162:1339-1348). The levels of MCP-1 (monocyte chemoattractant protein-1), CXCL1 (c-x-c motif ligand 1), MIP2 (macrophage inflammatory protein 2), RANTES (regulated on activation, normal T cell expressed and secreted), ICAM-1 ([…] adhesion molecule 1), GRP78 (glucose regulatory protein 78), CHOP, and IL-6 (interleukin 6) mRNA were determined by real-time polymerase chain reaction (PCR). The primers used for the measurement were:
# mRNA levels were corrected by the levels of β-actin or GAPDH mRNA. The expression of TNFα mRNA in kidney was determined by both a real time and a regular PCR using the primer of forward, 5′-[…]-3′ (SEQ ID NO: 17), reverse, 5′-[…]-3′ (SEQ ID NO: 18). GAPDH and β-actin mRNA levels were measured in the same sample.
# [2] = test system: MMP-9; test: Zymography of U937 cell supernatants, MMP-9; type: cell-based, human; settings: U937 cells stimulated with 10 ng/ml TNF-α, 100 μg/ml PPS; P<0.01
# Description: (§1) Human pro-monocytic U937 cells were obtained from American Type Culture Collection (Manassas, Va.) and grown in RPMI medium supplemented with 10% FBS. U937 cells were plated in six-well plates at a density of 5×10^6 cells/ml. The cells were then stimulated with 10 ng/ml TNF-α, in the presence or absence of either increasing concentrations of PPS (10-100 μg/ml) or heparin (100 μg/ml), and incubated at 37° C. for 3 hours. Following stimulation, cells were placed in 0.1% BSA-serum-free medium for 16-18 hours. The media was then collected, centrifuged, and supernatants were stored at −80° C. for the assessment of MMP activity. The cell number was determined by direct cell counting.
# MMP activity in aortic extracts and conditioned media from monocytes was assessed, as previously described (Jacot T A, et al., Lab Invest. 1996; 75:791-79). Briefly, aortic segments were homogenized and extracted in RIPA buffer (25 mM Tris, pH 7.4, 150 mM KCl, 5 mM EDTA, 1% Nonidet P-40, 0.5% sodium deoxycholate, and 0.1% SDS). Insoluble material was precipitated by centrifugation, and soluble extracts were collected and stored at −20° C. for further analysis. For in vitro experiments, cell supernatants were centrifuged to remove cellular debris, and diluted appropriately to normalize for cell number. […]
# [3] = test system: NF-κB; test: NF-κB luciferase reporter assay in proximal tubular cells; type: cell-based, mouse; settings: PPS 50-200 μg/ml, TNFα 10 ng/ml
# Description: To further determine the effect of PPS on NF-κB transcription activity, proximal tubular cells were transfected with a NF-κB reporter in the presence or absence of PPS (50-200 μg/ml) and TNFα (10 ng/ml). Some cells were also transfected with a cDNA expression vector containing constitutively active IκB, dominant negative IKK, or IKK. A β-galactosidase cDNA expression vector was co-transfected with the NF-κB reporter to serve as an internal control for transfection efficiency. Luciferase and β-galactosidase activity were measured using substrate assays. The same amount of DNA (1 μg/well of 24 well plates) was used for each transfection throughout the experiments.
# [4] = test system: Watanabe heritable hypercholesterolemic rabbits (WHHL); test: Progression of established atherosclerosis in WHHL rabbits, morphologic analysis of aorta; type: in vivo, rabbit
# Description: The degree of aortic atherosclerosis was evaluated by measuring the percent lesion area on the surface of the whole intimal (surface area of lesion/surface area of the whole intima) in the region between the aortic arch and the emergence of the renal arteries. Moreover, serial cross-sectional tissue samples (≈3 mm in length) taken from the aortic arch to the […] were post-fixed in paraformaldehyde (4% wt/vol.) and processed for histological analysis. The specimens were then embedded in paraffin, and 4-μm-thick sections were stained with hematoxylin and eosin (H&E). The ratio of intima to media (I/M ratio) was measured by computer-aided morphometric analysis in three consecutive cross-sectional sections of the aortic arch and the abdominal aorta, near the origin of the renal arteries, as described (Shindo J, et al., Circulation 1999; 99: 2150-2156). To avoid errors due to the heterogeneity of atherosclerotic lesions, the cross sections containing the thickest atherosclerotic lesions were selected individually from the aortic arch and used for the analysis of the cross-sectional areas of atherosclerotic lesions (Shindo J, et al., Circulation 1999; 99: 2150-2156). Percentage of the area occupied by macrophages and collagen were measured by computer-aided morphometric analysis on aortic cross sections stained immunohistochemically with RAM-11 antibody (DAKO Corp.) or Sirius red, respectively.
# [5] = test system: MMP-2; test: Zymography of U937 cell supernatants, MMP-2; type: cell-based, human
# Description: as §1
# MMP activity in aortic extracts and conditioned media from monocytes was assessed, as previously described (Jacot T A, et al., Lab Invest. 1996; 75:791-79). Briefly, aortic segments were homogenized and extracted in RIPA buffer (25 mM Tris, pH 7.4, 150 mM KCl, 5 mM EDTA, 1% Nonidet P-40, 0.5% sodium deoxycholate, and 0.1% SDS). Insoluble material was precipitated by centrifugation, and soluble extracts were collected and stored at −20° C. for further analysis. For in vitro experiments, cell supernatants were centrifuged to remove cellular debris, and diluted appropriately to normalize for cell number. Aortic extracts and conditioned media were then mixed with sample buffer (1% SDS, 0.08 M Tris pH 6.8, 4% glycerol, and 0.006% bromophenol blue), and loaded onto a 10% gelatin polyacrylamide gel, and processed as described (Jacot T A, et al., Lab Invest. 1996; 75:791-79). For reverse zymography, samples were loaded onto a 15% gelatin polyacrylamide gel containing 0.5% porcine gelatin and 6 μg recombinant gelatinase A, and processed as described (Elliot S J, et al., J Am Soc Nephrol. 1999; 10: 62-68).
# [6] = test system: NF-κB; test: NF-κB DNA binding, gel mobility shift assay (EMSA); type: cell-based, mouse; settings: proximal tubular cells, PPS 800 μg/ml for ½ hour before TNFα 10 ng/ml, nuclear protein after 1 hour
# Description: Additionally, NF-κB DNA binding was examined by gel mobility shift assay (EMSA). Briefly, proximal tubular cells were pre-incubated with or without PPS (800 μg/ml) for ½ hour before the addition of TNFα (10 ng/ml). Nuclear protein was extracted from cells 1 hour after treatment. A NF-κB probe was prepared by annealing complementary single-stranded oligonucleotides with 5′-ACTG overhangs (MWG Biotechnologies, Inc.) and were labeled by filling in with [-^32P]dGTP and [-^32P]dCTP using Klenow enzyme. Labeled probes were purified with Nuctrap purification columns (Roche Applied Science). EMSAs were performed using 10^5 cpm of labeled probe and 10 μg of nuclear extracts/reaction. DNA binding complexes were separated by electrophoresis on a 5% polyacrylamide-Tris/glycine-EDTA gel, which was dried and exposed to X-ray film.
# [7] = U937 cells, dose-response experiments
substance,measurement,setting,value
pentosan polysulfate [PPS],"mRNA levels of MCP-1, RANTES, and CXCL-1 in renal cortices",[1],levels similar to 22 month-old non-diabetic
same,"MMP-9 activity, reduction by PPS treatment",[2],51.70%±10.77%
same,TNFα stimulated NF-κB transcriptional activity,[3],dependently decreased
same,intima/media ratio (I/M) compared to WHHL rabbits fed a HC-diet for 45 days,"[4]; HC-diet 45 days, then oral PPS for an additional 30 days",not significantly different
same,"area containing macrophages, relative to the total plaque area","[4]; RAM-11 staining, aortic cross sections, 75 days HC-diet, PPS last 30 days, mean±SEM",35.56±1.51%
same,"percent surface area of the intima occupied by lesions, reduction compared to water-treated controls","[4]; WHHL rabbits, HC-diet 75 days, PPS 30 mg/kg BW daily in drinking water for the last 30 days",approximately one-third
same,intima/media ratio (I/M) compared to water-treated controls,"[4]; aortic arch and abdominal aorta, 75 days HC-diet, oral PPS for the last 30 days",significantly lower
same,Sirius red staining (collagen) in plaques,"[4]; aortic arch sections, 75 days HC-diet, PPS last 30 days, mean±SEM",47.43±2.93%
same,"MMP-2 activity, reduction by PPS treatment","[5]; U937 cells stimulated with 10 ng/ml TNF-α, 100 μg/ml PPS, P<0.05",37.73%±12.17%
same,concentration at which the PPS effect on MMP activity was evident,[5]; [7],25 µg/mL
same,concentration at which the PPS effect on MMP activity was maximal,[5]; [7],75 to 100 µg/mL
same,"MMP-2 activity, decrease by PPS treatment","[5]; unstimulated U937 cells, 100 μg/ml PPS, figure data as percent of control, P<0.01",45.40%±9.68%
same,TNFα-induced increase in NF-κB DNA binding activity,[6],nearly completely blocked
